Experiments:
[1] = system: hippocampal area CA1 slices; assay: Field potential (FP) recordings in area CA1 of rat hippocampal slices (DHPG-LTD); assay type: cell-based, Long Evans rats; conditions: for FP, % of pre-DHPG baseline (synaptic responses stabilized at a depressed level): after drug wash out
Experimental: (§1) All animals were used in accordance with procedures approved by the Brown University Institutional Animal Care and Use Committee. Hippocampal slices were prepared from postnatal day 21-30 (P21-30) Long Evans rats (Charles River, Cambridge, Mass.) and mGluR5 knockout mice (Lu et al. 1997) as described previously (Huber et al. 2000). For most experiments, CA3 was removed immediately after sectioning. Slices recovered for 1-2 h at room temperature (rats) or at 30° C. (mice) in artificial cerebrospinal fluid (ACSF) containing (in mM) 124 NaCl, 5 KCl, 1.25 NaH2PO4, 26 NaHCO3, 1 MgCl2, 2 CaCl2, and 10 dextrose, saturated with 95% O2-5% CO2. For recording, slices were placed in a submersion recording chamber and perfused with 30° C. ACSF at a rate of 2 ml/min.
Synaptically evoked field potentials (FPs) were recorded from area CA1 as described previously. Sharp microelectrode and whole cell voltage-clamp recordings were made using Axoclamp 2B and Axopatch 1D amplifiers (Axon Instruments), respectively. Sharp electrodes (80-120 M Ω) were filled with 3 M K-acetate and 10 mM KCl; patch pipettes (3-7 M Ω) were filled with (in mM) 134 K-gluconate, 6 KCl, 4 NaCl, 10 HEPES, 0.2 EGTA, 4 MgATP, 0.3 TrisGTP, and 14 phosphocreatine. The pH of the internal solution was adjusted to 7.25 with KOH, and the osmolarity was adjusted to 300 mOsm with H2O or sucrose. Only experiments in which there was less than a 15% change in series resistance were included in the analysis. Waveforms were filtered at 2 kHz and acquired and digitized at 10 kHz on a PC using Experimenter's Workbench (DataWave Systems, Boulder, Colo.).
(§2) Baseline responses were collected every 10-30 s using a stimulation intensity (10-30 μA; 0.2 ms) yielding 50-60% of the maximal response. Experiments in which there was a>5% drift in the response magnitude during the 20-min baseline period before DHPG or LFS were excluded from further analysis. All experiments with mGluR5 KO mice used wildtype littermates as controls and were performed blind to the genotype, later determined by Therion (Troy, N.Y.). LFS consisted of 900 pulses at 1 Hz. PP-LFS consisted of 900 pairs of stimuli (50-ms interstimulus interval) delivered at 1 Hz. In saturation experiments, stimulus duration was increased from 0.2 to 0.4 ms during PP-LFS.
(§3) The group data were analyzed as follows: 1) the initial slopes of the FPs and excitatory postsynaptic potentials (EPSPs), or the amplitude of the excitatory postsynaptic currents (EPSCs), for each experiment were expressed as percentages of the preconditioning or DHPG baseline average, 2) the time scale in each experiment was converted to time from the onset of conditioning or DHPG, and 3) the time-matched, normalized data were averaged across experiments and expressed in the text and figures as the means ±SE. Significant differences between groups were determined using an independent t-test or ANOVA performed on a 5-min average taken 1 h after LFS or DHPG application.
R,S-DHPG and D-2-amino-5-phosphonopentanoic acid (D-AP5) was purchased from Tocris (St. Louis, Mo.); all other chemicals were from Sigma Chemical (St Louis, Mo.). DHPG was prepared as a 100 times stock in H2O, aliquoted and stored at −20° C. Fresh stocks were made once a week. A 10 times stock of AP5 was prepared in ACSF and stored at 4° C. These stocks were diluted in ACSF to achieve their final concentrations. Picrotoxin was dissolved directly into ACSF immediately before use.

[2] = system: hippocampal slices from mGluR5 knockout mice; assay: DHPG-LTD of field potentials in hippocampal slices from mGluR5 knockout mice and wild-type littermates; assay type: cell-based
Experimental: as §1
as §2, with “In saturation experiments, stimulus duration was increased from 0.2 to 0.4 ms during PP-LFS.” left out
as §3

[3] = system: cultured hippocampal cells; assay: AMPAR-mediated mEPSC recordings; assay type: cell-based, rat; conditions: for mEPSC inter-event interval, % of baseline: 5 min; for mEPSC amplitude, % baseline: not statistically significant
[4] = system: CA1 neurons in hippocampal slices; assay: Synaptically evoked NMDAR-mediated EPSCs in CA1 neurons of hippocampal slices; assay type: cell-based, Long Evans rats; conditions: 5 min, 30 minutes after treatment, +40 mV
Experimental: The loss of synaptic NR1 clusters clearly distinguishes the effect of DHPG from other treatments that selectively affect AMPARs^2,17-19.
(§4) Hippocampal slices were prepared from P21-30 Long Evans rats (Charles River, Cambridge, Mass.) as described previously^13,14. Slices recovered for 1-2 h at room temperature in artificial cerebrospinal fluid (ACSF) containing 124 mM NaCl, 5 mM KCl, 1.25 mM NaH2PO4, 26 mM NaHCO3, 1 mM MgCl2, 2 mM CaCl2, 10 mM dextrose, saturated with 95% O2, 5% CO2. For recording, slices were placed in a submersion recording chamber and perfused with 30° C. ACSF at a rate of 2 ml/min.
Synaptically evoked-NMDAR-mediated EPSCs were recorded from area CA1 as described previously for visual cortex^20. NMDA-evoked currents were examined by picospritzing 1 mM NMDA (made in ACSF), applied for 3.5-12.5 ms, near the proximal portion of the primary apical dendrite. NMDA-evoked currents were elicited once every two minutes. Stimulation intensity or picospritz pulse duration/pressure were adjusted to evoke an inward current with amplitude of 50 pA or greater.

[5] = system: cultured hippocampal neurons; assay: Acid strip immunocytochemistry for internalized GluR1 (AMPARs); assay type: cell-based, rat
[6] = system: CA1 neurons in hippocampal slices; assay: NMDA-evoked currents in CA1 neurons of hippocampal slices; assay type: cell-based, Long Evans rats; conditions: DHPG 100 μM, 5 min; 50-60 min after treatment
Experimental: As an additional test for an mGluR-induced loss of NMDAR function, we examined the effects of 100 μM DHPG (5 min) on currents evoked by NMDA applied near the proximal portion of the primary apical dendrite (FIG. 9B). Significant depression of NMDAR currents occurred (percent baseline at 50-60 min after DHPG treatment, DHPG, 61.1±12.0, n=7; control, 97.3±9.4; n=7; p<0.05); however, the time course of this change was much slower than that observed for synaptically evoked EPSCs. […] The early LTD of EPSCs could be accounted for by a presynaptic mechanism or by the rapid dispersal of synaptic NMDARs (without immediate internalization). […] Regardless of the early consequences, however, the parallel depression of NMDAR EPSCs and NMDA-evoked responses 60 minutes after DHPG treatment is consistent with an eventual reduction in surface NMDAR expression during mGluR-LTD.
as §4, with “For recording, slices were placed in a submersion recording chamber and perfused with 30° C. ACSF at a rate of 2 ml/min.” left out
Synaptically evoked-NMDAR-mediated EPSCs were recorded from area CA1 as described previously for visual cortex^20. […]

`NC(C(=O)O)c1cc(O)cc(O)c1` (racemic) [DHPG, (RS)-3,5-dihydroxyphenylglycine] was tested, and the “FP slope, % of pre-DHPG baseline after saturation of mGluR-dependent LTD” value ([1]; DHPG 50 μM applied after PP-LFS in D-AP5 50 μM) was 100±5%, the “FP, % of pre-DHPG baseline (synaptic responses stabilized at a depressed level)” value ([1]; DHPG 50 μM, 5 min) was 69±5% and the “DHPG-LTD, two-pathway experiment, unstimulated input” value ([1]; DHPG 50 μM, 5 min, input not stimulated during DHPG) was 68±5%. The “DHPG-LTD, two-pathway experiment, stimulated input” value ([1]; DHPG 50 μM, 5 min, input stimulated during DHPG) was 62±4%, the “magnitude of DHPG-LTD, interleaved control slices without AP5” value ([1]; DHPG 50 μM, 5 min, no AP5) was 85±3% and the “FP, % of pre-DHPG baseline (synaptic responses stabilized at a depressed level)” value ([1]; DHPG 100 μM, 5 min) was 48±1%. For the same compound, the “FP slope, % of pre-DHPG baseline after saturation of NMDAR-dependent LTD” value ([1]; DHPG applied after repeated episodes of LFS) was 81±5%, the “DHPG-LTD, FP % of baseline, mGluR5 heterozygous mutants” value ([2]; 1 h after DHPG, mGluR5 +/−) was 84±4% and the “DHPG-LTD, FP % of baseline, wild-type littermate controls” value ([2]; 1 h after DHPG, wild type) was 77±2%. For the same compound, the “DHPG-LTD, FP % of baseline, mGluR5 homozygous mutants” value ([2]; measured 1 h after DHPG application, mGluR5 −/−) was 98±3%, the “mEPSC inter-event interval, % of baseline” value ([3]; 15 min after DHPG 50 μM) was 315% and the “mEPSC amplitude, % baseline” value ([3]; 15 minutes following DHPG) was 94.2%. For the same compound, the “mEPSC inter-event interval, % of baseline” value ([3]; 60 minutes after DHPG 50 μM) was 319%, the “mEPSC amplitude, % baseline” value ([3]; 60 minutes following DHPG) was 92.2% and the “NMDAR-EPSC amplitude as percent of baseline” value ([4]; DHPG 50 μM) was 70.7±2.9% of baseline. The “NMDAR-EPSC amplitude as percent of baseline” value ([4]; DHPG 100 μM) was 57.7±1.0% of baseline, the “internalized GluR1 puncta” value ([5]; DHPG 50 μM, 5 min, 15 minutes after treatment onset) was 1.44±0.17 puncta per 10 μm of dendrite and the “internalized GluR1 puncta” value ([5]; DHPG 50 μM, 5 min, 1 hour) was 1.14±0.15 puncta per 10 μm of dendrite. For the same compound, the “internalized GluR1 puncta, APV experiment” value ([5]; DHPG 50 μM, 5 min, APV 50 μM) was 1.49±0.22 puncta per 10 μm of dendrite, the “internalized GluR1 puncta, LY344545 experiment” value ([5]; DHPG 50 μM, 5 min, LY344545 100 μM) was 1.39±0.34 puncta per 10 μm of dendrite and the “internalized GluR1 puncta, cycloheximide experiment” value ([5]; measured at 60 minutes, chx 60 μM applied 15 min before DHPG) was 1.5±0.27 puncta per 10 μm of dendrite. The “NMDA-evoked currents, percent baseline” value [6] was 61.1±12.0 percent baseline.
